Assay [1] deals with Ramos B-Cell Line Stimulated with IL-4. Nature of the assay: Assay for Ramos B-Cell Line Stimulated with IL-4 (CD23 upregulation, FACS; Example 2). The format is cell-based. The settings on record: human Ramos B cells, IL-4 50 units/mL for 20-24 hours, anti-CD23-PE. An excerpt: One means of assaying for such inhibition is detection of the effect of the 2,4-pyrimidinediamine compounds on the upregulation of downstream gene products. In the Ramos/IL4 assay, B-cells are stimulated with the cytokine Interleukin-4 (IL-4) leading to the activation of the JAK/Stat pathway through phosphorylation of the JAK family kinases, JAK1 and JAK3, which in turn phosphorylate and activate the transcription factor Stat-6. […] To study the effect of inhibitors (e.g., the 2,4-substituted pyrimindinediamine compounds described herein) on the JAK1 and JAK3 kinases, human Ramos B cells are stimulated with human IL-4. 20 to 24 hours post stimulation, cells are stained for upregulation of CD23 and analyzed using flow cytometry (FACS). […] An exemplary assay of this type is described in greater detail in Example 2.
B-cells stimulated with cytokine Interleukin-4 (IL-4) activate the JAK/Stat pathway through phosphorylation of the JAK family kinases, JAK-1 and JAK-3, which in turn phosphorylate and activate the transcription factor Stat-6. […] To study the effect of inhibitors on the JAK family kinases, human Ramos B cells are stimulated with human IL-4.
The Ramos B-cell line was acquired from ATCC (ATCC Catalog No. CRL-1596). The cells were cultured in RPMI 1640 (Cellgro, MediaTech, Inc., Herndon, Va., Cat No. 10-040-CM) with 10% fetal bovine serum (FBS), heat inactivated (JRH Biosciences, Inc, Lenexa, Kans., Cat No. 12106-500M) according to ATCC propagation protocol. Cells were maintained at a density of 3.5×10^5. The day before the experiment, Ramos B-cells were diluted to 3.5×10^5 cells/mL to ensure that they were in a logarithmic growth phase.
Cells were spun down and suspended in RPMI with 5% serum. 5×10^4 cells were used per point in a 96-well tissue culture plate. Cells were pre-incubated with compound or DMSO (Sigma-Aldrich, St. Louis, Mo., Cat No. D2650) vehicle control for 1 hour in a 37° C. incubator.
Cells were then stimulated with IL-4 (Peprotech Inc., Rocky Hill, N.J., Cat No. 200-04) for a final concentration of 50 units/mL for 20-24 hours. Cells were then spun down and stained with anti-CD23-PE (BD Pharmingen, San Diego, Calif., Cat No. 555711) and analyzed by FACS. Detection was performed using a BD LSR I System Flow Cytometer, purchased from Becton Dickinson Biosciences of San Jose, Calif.

Another assay concerns BaF3 V617F cells; UKE-1. Nature of the assay: Proliferation Assay (Cell Titer-Glo; Example 7). The conditions noted are these: proliferation 72 hours, inhibit JAK2 activity, cell line (BaF3 V617F or UKE-1) not stated. The format is cell-based. The procedure, abridged: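 Proliferation IC50s reflect 72 h compound exposure at 37 °C, read by Cell Titer-Glo luminescence. Compound was serially diluted 3-fold from a 5 mM DMSO stock and added as a 2× solution; BaF3 V617F cells were grown in RPMI/10% FBS, UKE-1 in Iscove's DMEM with FBS, equine serum and hydrocortisone.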

SMILES strings stand for the structures.

Regarding `COc1c(C)cc(Nc2ncc(C)c(Nc3ccc(CNS(=O)(=O)C4CC4)cc3)n2)cc1C` [II-42, N4-(4-cyclopropylsulfonylaminomethyl)phenyl-N2-(3,5-dimethyl-4-methoxy)phenyl-5-methyl-2,4-pyrimidinediamine], the IC50 was 24.7 nM in assay [1] and 63.7 nM in the assay with BaF3 V617F cells; UKE-1.

On to `Cc1cnc(Nc2ccc(C#N)cc2)nc1Nc1cccc(CNS(=O)(=O)C2CC2)c1` [II-25, N2-(4-cyano)phenyl-N4-(3-cyclopropylsulfonylaminomethyl)phenyl-5-methyl-2,4-pyrimidinediamine], for which the results for the IC50 (in assay [1]; in the assay with BaF3 V617F cells; UKE-1) were 142 nM and 2300 nM, respectively.

Regarding `Cc1cc(C)cc(Nc2ncc(Cl)c(Nc3ccc(CNS(=O)(=O)C4CC4)cc3)n2)c1` [II-36, 5-chloro-N4-(4-cyclopropylsulfonylaminomethyl)phenyl-N2-(3,5-dimethyl)phenyl-2,4-pyrimidinediamine], the values for the IC50 (in assay [1]; in the assay with BaF3 V617F cells; UKE-1) were 38.1 nM and 599 nM, respectively.

Regarding `Cc1cnc(Nc2ccc(C(N)=O)cc2)nc1Nc1ccc(CNS(=O)(=O)C2CC2)c(Cl)c1` [II-17, N2-(4-aminocarbonyl)phenyl-N4-(3-chloro-4-cyclopropylsulfonylaminomethyl)phenyl-5-methyl-2,4-pyrimidinediamine], the values for the IC50 (in assay [1]; with BaF3 V617F cells; UKE-1) were 87.1 nM and 2950 nM, respectively.

On to `COc1ccc(Nc2ncc(Cl)c(Nc3ccc(CNS(=O)(=O)C4CC4)cc3)n2)cc1Cl` [II-35, 5-chloro-N2-(3-chloro-4-methoxy)phenyl-N4-(4-cyclopropylsulfonylaminomethyl)phenyl-2,4-pyrimidinediamine], for which the IC50 in assay [1] was found to be 48.9 nM; in the assay with BaF3 V617F cells; UKE-1 it was 912 nM.

With `COc1cc(Nc2ncc(F)c(Nc3ccc(CNS(=O)(=O)C4CC4)cc3)n2)cc(OC)c1OC` [II-1, N4-(4-cyclopropylsulfonylaminomethyl)phenyl-5-fluoro-N2-(3,4,5-trimethoxy)phenyl-2,4-pyrimidinediamine], the values for the IC50 (in assay [1]; in the assay on BaF3 V617F cells; UKE-1) were 123 nM and 405 nM, respectively.

`Cc1cnc(Nc2ccc(C(N)=O)cc2)nc1Nc1cccc(CNS(=O)(=O)C2CC2)c1` [II-23, N2-(4-aminocarbonyl)phenyl-N4-(3-cyclopropylsulfonylaminomethyl)phenyl-5-methyl-2,4-pyrimidinediamine]: the IC50 in assay [1] turned out to be 107 nM; in the assay with BaF3 V617F cells; UKE-1, 6140 nM.

Take `N#Cc1ccc(Nc2ncc(F)c(Nc3ccc(CNS(=O)(=O)C4CC4)cc3)n2)cc1` [II-29, N2-(4-cyano)phenyl-N4-(4-cyclopropylsulfonylaminomethyl)phenyl-5-fluoro-2,4-pyrimidinediamine]: the results for the IC50 (in assay [1]; with BaF3 V617F cells; UKE-1) were 78.6 nM and 12500 nM, respectively.

For the molecule `Cc1nc2cc(Nc3ncc(F)c(Nc4ccc(CNS(=O)(=O)C5CC5)cc4)n3)ccc2[nH]1` [III-5, N4-(4-cyclopropylsulfonylaminomethyl)phenyl-5-fluoro-N2-(2-methylbenzoimidazol-5-yl)-2,4-pyrimidinediamine], the IC50 was determined as 178 nM in assay [1] and 6310 nM in the assay on BaF3 V617F cells; UKE-1.

On to `COc1ccc(Nc2ncc(C)c(Nc3cccc(CNS(=O)(=O)C4CC4)c3)n2)cc1Cl` [II-14, N2-(3-chloro-4-methoxy)phenyl-N4-(3-cyclopropylsulfonylaminomethyl)phenyl-5-methyl-2,4-pyrimidinediamine], for which the IC50 is 152 nM in assay [1] and 2190 nM in the assay on BaF3 V617F cells; UKE-1.

In the case of `Cc1cnc(Nc2ccc3c(c2)nc(C)n3C)nc1Nc1ccc(CNS(=O)(=O)C2CC2)cc1` [IV-7, N4-(4-cyclopropylsulfonylaminomethyl)phenyl-N2-(1,2-dimethylbenzoimidazol-5-yl)-5-methyl-2,4-pyrimidinediamine], the IC50 was 116 nM in assay [1] and 796 nM with BaF3 V617F cells; UKE-1.

In the case of `Cc1cc(C)cc(Nc2ncc(C)c(Nc3ccc4c(c3)CCN(S(=O)(=O)C3CC3)C4)n2)c1` [VIII-7, N4-[(N-cyclopropylsulfonyl)-1,2,3,4-tetrahydroisoquinolin-6-yl]-N2-(3,5-dimethyl)phenyl-5-methyl-2,4-pyrimidinediamine], the IC50 was determined as 110 nM in assay [1] and 478 nM with BaF3 V617F cells; UKE-1.

`CCN1CCN(c2ccc(Nc3ncc(F)c(Nc4ccc(CNS(=O)(=O)C5CC5)cc4)n3)cc2C)CC1` [II-6, N4-(4-cyclopropylsulfonylaminomethyl)phenyl-N2-[4-(4-ethylpiperazino)-3-methyl]phenyl-5-fluoro-2,4-pyrimidinediamine]: the figures for the IC50 (in assay [1]; in the assay on BaF3 V617F cells; UKE-1) were 36.4 nM and 138 nM, respectively.

For the molecule `Cc1cc(C)cc(Nc2ncc(C)c(Nc3ccc(CNS(=O)(=O)C4CC4)c(Cl)c3)n2)c1` [II-38, N4-(3-chloro-4-cyclopropylsulfonylaminomethyl)phenyl-N2-(3,5-dimethyl)phenyl-5-methyl-2,4-pyrimidinediamine], the IC50 in assay [1] is 331 nM; in the assay with BaF3 V617F cells; UKE-1, 1540 nM.

With `NC(=O)c1cccc(Nc2ncc(F)c(Nc3ccc(CNS(=O)(=O)C4CC4)cc3)n2)c1` [II-16, N2-(3-aminocarbonyl)phenyl-N4-(4-cyclopropylsulfonylaminomethyl)phenyl-5-fluoro-2,4-pyrimidinediamine], the values for the IC50 (in assay [1]; in the assay on BaF3 V617F cells; UKE-1) were 265 nM and 3290 nM, respectively.

For `Cc1cc(C)cc(Nc2ncc(C)c(Nc3ccc(CNS(=O)(=O)C4CC4)cc3)n2)c1` [II-7, N4-(4-cyclopropylsulfonylaminomethyl)phenyl-N2-(3,5-dimethyl)phenyl-5-methyl-2,4-pyrimidinediamine], the half-maximal inhibitory concentration (IC50) in assay [1] stood at 44.9 nM; in the assay on BaF3 V617F cells; UKE-1 it was 688 nM.

As for `Cc1cnc(Nc2cccc(C(N)=O)c2)nc1Nc1cccc(CN(C)S(=O)(=O)C2CC2)c1` [II-22, N2-(3-aminocarbonyl)phenyl-N4-[3-(N-cyclopropylsulfonyl-N-methyl)aminomethyl]phenyl-5-methyl-2,4-pyrimidinediamine], the results for the IC50 (in assay [1]; with BaF3 V617F cells; UKE-1) were 302 nM and 2690 nM, respectively.

Consider `Cc1cnc(Nc2ccc(C(N)=O)cc2)nc1Nc1ccc(CNS(=O)(=O)C2CC2)cc1` [II-31, N2-(4-aminocarbonyl)phenyl-N4-(4-cyclopropylsulfonylaminomethyl)phenyl-5-methyl-2,4-pyrimidinediamine], for which the figures for the IC50 (in assay [1]; in the assay with BaF3 V617F cells; UKE-1) were 35.7 nM and 2130 nM, respectively.

Regarding `NC(=O)c1ccc(Nc2ncc(F)c(Nc3ccc(CNS(=O)(=O)C4CC4)cc3)n2)cc1` [II-15, N2-(4-aminocarbonyl)phenyl-N4-(4-cyclopropylsulfonylaminomethyl)phenyl-5-fluoro-2,4-pyrimidinediamine], the IC50 in assay [1] was determined as 78.1 nM; in the assay on BaF3 V617F cells; UKE-1 it was 8060 nM.

As for `Cc1cc(C)cc(Nc2ncc(C)c(Nc3ccc(CN(C)S(=O)(=O)C4CC4)cc3)n2)c1` [II-39, N4-[4-(N-cyclopropylsulfonyl-N-methyl)aminomethyl]phenyl-N2-(3,5-dimethyl)phenyl-5-methyl-2,4-pyrimidinediamine], the figures for the IC50 (in assay [1]; in the assay with BaF3 V617F cells; UKE-1) were 327 nM and 2040 nM, respectively.

Regarding `Cc1cc(C)cc(Nc2ncc(C)c(Nc3cccc(CNS(=O)(=O)C4CC4)c3)n2)c1` [II-11, N4-(3-cyclopropylsulfonylaminomethyl)phenyl-N2-(3,5-dimethyl)phenyl-5-methyl-2,4-pyrimidinediamine], the IC50 in assay [1] stood at 254 nM; in the assay on BaF3 V617F cells; UKE-1, 2800 nM.

As to `Cc1nc2cc(Nc3ncc(Cl)c(Nc4ccc(CNS(=O)(=O)C5CC5)cc4)n3)ccc2[nH]1` [III-6, 5-chloro-N4-(4-cyclopropylsulfonylaminomethyl)phenyl-N2-(2-methylbenzoimidazol-5-yl)-2,4-pyrimidinediamine], the IC50 in assay [1] was 26.6 nM; in the assay on BaF3 V617F cells; UKE-1, 1450 nM.

Take `NS(=O)(=O)c1cccc(Nc2nc(Nc3ccc(OCc4ccccn4)cc3)ncc2C(F)(F)F)c1` [I-12, N4-(3-Aminosulfonylphenyl)-N2-[4-(2-pyridinyl)methyleneoxyphenyl]-5-trifluoromethyl-2,4-pyrimidinediamine]: in assay [1], half-maximal inhibition (IC50) was put at 1110 nM.

In assay [1], `COc1ccc(Nc2ncc(F)c(Nc3ccc(CNS(=O)(=O)C4CC4)cc3)n2)cc1Cl` [II-3, N2-(3-chloro-4-methoxy)phenyl-N4-(4-cyclopropylsulfonylaminomethyl)phenyl-5-fluoro-2,4-pyrimidinediamine] had an IC50 of 116 nM.

The values above are taken from patent publication US8304422B2, “Compositions and methods for inhibition of the JAK pathway” (Rigel Pharmaceuticals, Inc., priority 2007, dated 2012).
